Laboratory results taken from ChEMBL document CHEMBL3351906, “Bioactive triterpenoid saponins and phenolic compounds against glioma cells” (Bioorg Med Chem Lett, 2014).
Calls of active or inactive are those of the source. The calls are words filed in the database; no cut-off is given here.

Columns and labels:
[1] = system: U-251; test: Inhibition of cell proliferation of human U251 cells assessed as cell viability at 100 uM after 72 hrs by sulforhodamine B assay; format: functional; settings: U-251, 72 h, read-out: Activity
[2] = system: C6; test: Inhibition of cell proliferation of rat C6 cells assessed as cell viability at 100 uM after 72 hrs by sulforhodamine B assay; format: functional; settings: C6, 72 h, read-out: Activity
[3] = system: U-251; test: Inhibition of cell proliferation of human U251 cells assessed as cell viability after 72 hrs by sulforhodamine B assay; format: functional, cell-based; settings: for IC50: U-251, 72 h
[4] = system: C6; test: Inhibition of cell proliferation of rat C6 cells assessed as cell viability after 72 hrs by sulforhodamine B assay; format: functional, cell-based; settings: for IC50: C6, 72 h
[5] = system: U-87MG ATCC; test: (§1) Inhibition of cell proliferation of human U87MG cells assessed as cell viability after 72 hrs by sulforhodamine B assay; format: functional, cell-based
[6] = as §1; format: functional, cell-based, U-87MG ATCC; settings: U-87 MG
[7] = system: C6; test: Induction of apoptosis in rat C6 cells assessed as nuclear pyknosis at 10 uM after 72 hrs by DAPI staining based fluorescence microscopy; format: functional, cell-based
[8] = system: C6; test: Induction of necrosis in rat C6 cells at 10 uM after 72 hrs by propidium iodide staining based fluorescence microscopy; format: functional, cell-based
[9] = system: U-251; test: Induction of apoptosis in human U251 cells assessed as nuclear pyknosis at 15 uM after 72 hrs by DAPI staining based fluorescence microscopy; format: functional, cell-based
[10] = system: U-251; test: Induction of necrosis in human U251 cells at 15 uM after 72 hrs propidium iodide staining based fluorescence microscopy; format: functional, cell-based
[11] = system: U-251; test: Induction of apoptosis in human U251 cells assessed as viable cell level at 40 uM after 72 hrs by annexin V-FITC/propidium iodide double staining based flow cytometry (reference value: 91.04%); format: functional
[12] = system: U-251; test: Induction of apoptosis in human U251 cells assessed as early apoptotic level at 40 uM after 72 hrs by annexin V-FITC/propidium iodide double staining based flow cytometry (reference value: 1.77%); format: functional
[13] = system: U-251; test: Induction of apoptosis in human U251 cells assessed as late apoptotic level at 40 uM after 72 hrs by annexin V-FITC/propidium iodide double staining based flow cytometry (reference value: 4.95%); format: functional
[14] = system: U-251; test: Induction of apoptosis in human U251 cells assessed as necrotic cell level at 40 uM after 72 hrs by annexin V-FITC/propidium iodide double staining based flow cytometry (reference value: 2.24%); format: functional
[15] = system: C6; test: Induction of apoptosis in rat C6 cells assessed as nuclear pyknosis at 2.5 uM after 72 hrs by DAPI staining based fluorescence microscopy; format: functional, cell-based
[16] = system: C6; test: Induction of necrosis in rat C6 cells at 2.5 uM after 72 hrs by propidium iodide staining based fluorescence microscopy; format: functional, cell-based
[17] = system: U-251; test: Induction of apoptosis in human U251 cells assessed as nuclear pyknosis at 20 uM after 72 hrs by DAPI staining based fluorescence microscopy; format: functional, cell-based
[18] = system: U-251; test: Induction of necrosis in human U251 cells at 20 uM after 72 hrs propidium iodide staining based fluorescence microscopy; format: functional, cell-based
[19] = system: C6; test: Induction of apoptosis in rat C6 cells assessed as viable cell level at 6 uM after 72 hrs by annexin V-FITC/propidium iodide double staining based flow cytometry (reference value: 93.43); format: functional
[20] = system: C6; test: Induction of apoptosis in rat C6 cells assessed as nuclear pyknosis at 6 uM after 72 hrs by DAPI staining based fluorescence microscopy; format: functional, cell-based
[21] = system: C6; test: Induction of necrosis in rat C6 cells at 6 uM after 72 hrs by propidium iodide staining based fluorescence microscopy; format: functional, cell-based
[22] = system: U-251; test: Induction of apoptosis in human U251 cells assessed as nuclear pyknosis at 10 uM after 72 hrs by DAPI staining based fluorescence microscopy; format: functional, cell-based
[23] = system: U-251; test: Induction of necrosis in human U251 cells at 10 uM after 72 hrs propidium iodide staining based fluorescence microscopy; format: functional, cell-based
[24] = system: C6; test: Induction of apoptosis in rat C6 cells assessed as early apoptotic level at 6 uM after 72 hrs by annexin V-FITC/propidium iodide double staining based flow cytometry (reference value: 1.67%); format: functional
[25] = system: C6; test: Induction of apoptosis in rat C6 cells assessed as late apoptotic level at 6 uM after 72 hrs by annexin V-FITC/propidium iodide double staining based flow cytometry (reference value: 3.68%); format: functional
[26] = system: C6; test: Induction of apoptosis in rat C6 cells assessed as necrotic cell level at 6 uM after 72 hrs by annexin V-FITC/propidium iodide double staining based flow cytometry (reference value: 1.22%); format: functional
[27] = system: U-251; test: Induction of apoptosis in human U251 cells assessed as viable cell level at 10 uM after 72 hrs by annexin V-FITC/propidium iodide double staining based flow cytometry (reference value: 94.49%); format: functional
[28] = system: U-251; test: Induction of apoptosis in human U251 cells assessed as early apoptotic level at 10 uM after 72 hrs by annexin V-FITC/propidium iodide double staining based flow cytometry (reference value: 0.56%); format: functional
[29] = system: U-251; test: Induction of apoptosis in human U251 cells assessed as late apoptotic level at 10 uM after 72 hrs by annexin V-FITC/propidium iodide double staining based flow cytometry (reference value: 3.16%); format: functional
[30] = system: U-251; test: Induction of apoptosis in human U251 cells assessed as necrotic cell level at 10 uM after 72 hrs by annexin V-FITC/propidium iodide double staining based flow cytometry (reference value: 1.79%); format: functional

Row | SMILES | viability at 100 µM [1] [%] | viability at 100 µM [2] [%] | inhibition [3] | inhibition [4] | inhibition [5] | IC50 [3] [µM] | IC50 [4] [µM] | other results
1 | C[C@@H]1O[C@@H](OC[C@H]2O[C@@H](OC(=O)[C@]34CCC(C)(C)C[C@H]3C3=CC[C@@H]5[C@@]6(C)CC[C@H](O[C@@H]7O[C@H](CO[C@@H]8OC[C@H](O)[C@H](O)[C@H]8O)[C@@H](O)[C@H](O)[C@H]7O)C(C)(C)[C@@H]6CC[C@@]5(C)[C@]3(C)C[C@H]4O)[C@H](O[C@@H]3O[C@@H](C)[C@H](O[C@@H]4OC[C@@H](O)[C@H](O[C@@H]5OC[C@@H](O)[C@H](O)[C@H]5O)[C@H]4O)[C@@H](O)[C@H]3O)[C@@H](O)[C@@H]2O)[C@H](O)[C@H](O)[C@H]1O | 72.3 | 63.9 | inactive | inactive | inactive | – | – | –
2 | C/C=C(/C)C(=O)O[C@H]1[C@H](O)[C@]2(COC(C)=O)[C@H](O)C[C@]3(C)C(=CC[C@@H]4[C@@]5(C)CC[C@H](O[C@@H]6O[C@H](C(=O)OC)[C@@H](O[C@@H]7O[C@H](CO)[C@@H](O)[C@H](O)[C@H]7O)[C@H](O)[C@H]6O[C@@H]6O[C@H](CO)[C@@H](O)[C@H](O)[C@H]6O)[C@](C)(CO)[C@@H]5CC[C@]43C)[C@@H]2CC1(C)C | 22.2 | – | – | – | – | 15.6 | 11 | IC50 [6]: 8.32 µM; Activity [7]: Active; Activity [8]: Active; Activity [9]: Active; Activity [10]: Active; Activity [11]: 62.1%; Activity [12]: 7.06%; Activity [13]: 26.54%; Activity [14]: 4.3%
3 | COc1cc(CCC(=O)OCCc2ccc(O)c(O)c2)ccc1O | 48.4 | – | – | – | – | 29.5 | 5.37 | Activity [15]: Active; Activity [16]: Active; Activity [17]: Active; Activity [18]: Active
4 | Cn1nnc2c(C(N)=O)ncn2c1=O [TEMOZOLOMIDE] | – | – | – | – | – | > 200 | 60.5 | IC50 [6]: > 200 µM
5 | CC1(C)CC[C@]2(C(=O)O)CC[C@]3(C)C(=CC[C@@H]4[C@@]5(C)CC[C@H](O[C@@H]6O[C@H](CO[C@@H]7OC[C@H](O)[C@H](O)[C@H]7O[C@@H]7OC[C@@H](O)[C@H](O)[C@H]7O)[C@@H](O)[C@H](O)[C@H]6O)C(C)(C)[C@@H]5CC[C@]43C)[C@@H]2C1 [PITHEDULOSIDE C] | 104 | 63 | inactive | inactive | inactive | – | – | –
6 | C[C@@H]1O[C@@H](O[C@H]2[C@H](OC(=O)[C@]34CCC(C)(C)C[C@H]3C3=CC[C@@H]5[C@@]6(C)CC[C@H](O[C@@H]7O[C@H](CO[C@@H]8OC[C@H](O)[C@H](O)[C@H]8O[C@@H]8OC[C@@H](O)[C@H](O)[C@H]8O)[C@@H](O)[C@H](O)[C@H]7O)C(C)(C)[C@@H]6CC[C@@]5(C)[C@]3(C)C[C@H]4O)O[C@H](CO)[C@@H](O)[C@@H]2O)[C@H](O[C@@H]2O[C@H](CO)[C@H](O)[C@H](O)[C@H]2O)[C@H](O)[C@H]1O[C@@H]1OC[C@@H](O)[C@H](O[C@@H]2OC[C@@H](O)[C@H](O)[C@H]2O)[C@H]1O | 130 | 61.5 | inactive | inactive | inactive | – | – | –
7 | C=C[C@@](C)(O)CC/C=C(\C)C(=O)OC[C@H]1O[C@@H](OC(=O)[C@]23CCC(C)(C)C[C@H]2C2=CC[C@@H]4[C@@]5(C)CC[C@H](O[C@@H]6O[C@H](CO[C@@H]7OC[C@H](O)[C@H](O)[C@H]7O[C@@H]7OC[C@@H](O)[C@H](O)[C@H]7O)[C@@H](O)[C@H](O)[C@H]6O)C(C)(C)[C@@H]5CC[C@@]4(C)[C@]2(C)CC3)[C@H](O[C@@H]2O[C@@H](C)[C@H](O[C@@H]3OC[C@@H](O)[C@H](O[C@@H]4OC[C@@H](O)[C@H](O)[C@H]4O)[C@H]3O)[C@@H](O)[C@H]2O)[C@@H](O)[C@@H]1O | 14.2 | – | – | – | – | 16.9 | 7.3 | IC50 [6]: 14.7 µM; Activity [19]: 40.15%; Activity [20]: Active; Activity [21]: Active; Activity [22]: Active; Activity [23]: Active; Activity [24]: 16.73%; Activity [25]: 21.37%; Activity [26]: 21.75%; Activity [27]: 64.13%; Activity [28]: 4.12%; Activity [29]: 18.13%; Activity [30]: 13.62%
8 | C[C@@H]1O[C@@H](O[C@H]2[C@H](OC(=O)[C@]34CCC(C)(C)C[C@H]3C3=CC[C@@H]5[C@@]6(C)CC[C@H](O[C@@H]7O[C@H](CO[C@@H]8OC[C@H](O)[C@H](O)[C@H]8O[C@@H]8OC[C@@H](O)[C@H](O)[C@H]8O)[C@@H](O)[C@H](O)[C@H]7O)C(C)(C)[C@@H]6CC[C@@]5(C)[C@]3(C)C[C@H]4O)O[C@H](CO)[C@@H](O)[C@@H]2O)[C@H](O[C@@H]2OC[C@@H](O)[C@H](O)[C@H]2O)[C@H](O)[C@H]1O[C@@H]1OC[C@@H](O)[C@H](O[C@@H]2OC[C@@H](O)[C@H](O)[C@H]2O)[C@H]1O | 93.6 | 81.6 | inactive | inactive | inactive | – | – | –
9 | C[C@@H]1O[C@@H](OC[C@H]2O[C@@H](OC(=O)[C@]34CCC(C)(C)C[C@H]3C3=CC[C@@H]5[C@@]6(C)CC[C@H](O[C@@H]7O[C@H](CO[C@@H]8OC[C@H](O)[C@H](O)[C@H]8O[C@@H]8OC[C@@H](O)[C@H](O)[C@H]8O)[C@@H](O)[C@H](O)[C@H]7O)C(C)(C)[C@@H]6CC[C@@]5(C)[C@]3(C)CC4)[C@H](O[C@@H]3O[C@@H](C)[C@H](O[C@@H]4OC[C@@H](O)[C@H](O[C@@H]5OC[C@@H](O)[C@H](O)[C@H]5O)[C@H]4O)[C@@H](O)[C@H]3O)[C@@H](O)[C@@H]2O)[C@H](O)[C@H](O)[C@H]1O | 83.9 | 97.2 | inactive | inactive | inactive | – | – | –
10 | C[C@@H]1O[C@@H](O[C@H]2[C@H](OC(=O)[C@]34CCC(C)(C)C[C@H]3C3=CC[C@@H]5[C@@]6(C)CC[C@H](O[C@@H]7O[C@H](CO[C@@H]8OC[C@H](O)[C@H](O)[C@H]8O[C@@H]8OC[C@@H](O)[C@H](O)[C@H]8O)[C@@H](O)[C@H](O)[C@H]7O)C(C)(C)[C@@H]6CC[C@@]5(C)[C@]3(C)CC4)O[C@H](CO)[C@@H](O)[C@@H]2O)[C@H](O)[C@H](O)[C@H]1O[C@@H]1OC[C@@H](O)[C@H](O[C@@H]2OC[C@@H](O)[C@H](O)[C@H]2O)[C@H]1O | 91.8 | 62.7 | inactive | inactive | inactive | – | – | –
11 | CC1(C)CC[C@]2(C(=O)O)[C@H](O)C[C@]3(C)C(=CC[C@@H]4[C@@]5(C)CC[C@H](O[C@@H]6O[C@H](CO[C@@H]7OC[C@H](O)[C@H](O)[C@H]7O[C@@H]7OC[C@@H](O)[C@H](O)[C@H]7O)[C@@H](O)[C@H](O)[C@H]6O)C(C)(C)[C@@H]5CC[C@]43C)[C@@H]2C1 | 88.8 | 86.2 | inactive | inactive | inactive | – | – | –
